Test results published in patent US12168929B2, “Quantifying zonal flow in multi-lateral wells via taggants of fluids” (Saudi Arabian Oil Company, priority 2023, dated 2024).
Converted amounts (≈) assume the structure as drawn.

Key:
[1] = Methanol solubility of LR versus non-polar crude oil fractions; format: physicochemical; conditions: non-polar crude oil fractions showed poor MeOH solubility
From the text: To enhance the detection sensitivity further for LR, the fluorescent non-polar fractions of crude oil coeluted with LR during the chromatography may be removed or partially removed from the resulting effluent mixtures. While the polar components of crude oil can be effectively separated using the gravity column chromatography over silica gel with 100% DCM, the separation of the non-polar crude oil components remains a challenge because of its similar polarity with LR, identified by the Rf value on TLC. Therefore, explored was the second step of purification and isolation of the product by utilizing the solubility difference between LR and the non-polar crude oil components. […] Therefore, in subsequent work, DCM from the resulting effluent was evaporated and then the dark viscous residues were re-dissolved in 1 mL of MeOH followed by sonication for 30 seconds.

[2] = Solubility of Lumogen F dyes in organic solvents (toluene); format: physicochemical; conditions: organic solvent or mixture
[3] = cited from earlier work

Structure (SMILES) | solubility [2] | solubility in organic solvents [3] | also measured
CC(C)c1cccc(C(C)C)c1N1C(=O)c2cc(Oc3ccccc3)c3c4c(Oc5ccccc5)cc5c6c(cc(Oc7ccccc7)c(c7c(Oc8ccccc8)cc(c2c37)C1=O)c64)C(=O)N(c1c(C(C)C)cccc1C(C)C)C5=O [LR, 7,18-bis[2,6-di(propan-2-yl)phenyl]-11,14,22,26-tetraphenoxy-7,18-diazaheptacyclo[14.6.2.2^2,5.0^3,12.0^4,9.0^13,23.0^20,24]hexacosa-1(22),2(26),3,5(25),9,11,13,15,20,23-decaene-6,8,17,19-tetrone] | 80000 µg/mL (≈ 74.1 mM) | – | solubility in methanol (MeOH) [1]: moderately soluble
CCCCC(CC)CN1C(=O)c2ccc(OC)c3c(OC)ccc(c23)C1=O (centres unmarked) [LV, 2-(2-ethylhexyl)-6,7-dimethoxybenzo[de]isoquinoline-1,3-dione] | 10000 µg/mL (≈ 27.1 mM) | – | –
CC(C)COC(=O)c1ccc2c3ccc(C#N)c4c(C(=O)OCC(C)C)ccc(c5ccc(C#N)c1c52)c43 [LY, bis(2-methylpropyl) 4,10-dicyanoperylene-3,9-dicarboxylate] | < 1000 µg/mL | – | –
CC[N+](CC)=c1ccc2nc3c(cc(N)c4ccccc43)oc-2c1 [NB, Nile Blue] | – | relatively low | solubility in water ([3]; water): highly soluble
CCN(CC)c1ccc2nc3c4ccccc4c(=O)cc-3oc2c1 [NR, Nile Red] | – | – | solubility in organic solvents such as DCM and toluene ([3]; DCM, toluene): highly soluble
COc1cc(/C=C/C(=O)CC(=O)/C=C/c2ccc(O)c(OC)c2)ccc1O [curcumin] | – | soluble | –
